Results taken from article PMC2443153 (BMC Biochemistry, 2008).
Like-named read-outs stand apart in the source and are kept apart here.

Legend:
[1] = test system: HEK293 cells expressing H30 indicator; assay: Uptake in living cells, Epac-based FRET cAMP indicator H30; assay type: cell-based; details: 100 μM IBMX
Excerpt: Since FRET depends on the distance between the two fluorophores which in turn is ligand-dependent, this probe is used to estimate the intracellular level of cAMP or -analogs.
We can not exclude, however, that the Epac- based FRET sensor used for the measurements preferentially binds Sp-5,6-DCl-cBIMPS.
The ratio between the background subtracted emission intensities at 480 nm and 545 nm is plotted as a function of time. […] The insets show the yellow fluorescent protein fluorescence at the beginning of the experiments and the regions of interest where FRET ratios are calculated.
For transient expression of the H30 sensor, cells were seeded onto 24-mm diameter round glass coverslips, and transfections were performed at 50–70% confluence with FuGENE-6 transfection reagent (Roche). Imaging experiments were performed after about 24 h. Cells were maintained in Hepes-buffered Ringer-modified solution, containing 125 mM NaCl, 5 mM KCl, 1 mM Na3PO4, 1 mM MgS0_4, 5.5 mM glucose, 1 mM CaCl2, and 20 mM Hepes, pH 7.4, at room temperature and treated with 100 μM 3-Isobutyl-1-methylxanthine (IBMX, Sigma-Aldrich) 10 minutes before the experiments. […] FRET variations were measured as changes of the ratio between the background-subtracted fluorescence emission intensities at 480 nm and 545 nm, on excitation at 430 nm. […]

RIα subunit = biological target: T1, RIα subunit (Homo sapiens, UniProt P10644); assay: Fluorescence polarization displacement of 8-Fluo-cAMP from RIα subunit; assay type: binding; details: 2.5 nM RIα, 1 nM 8-Fluo-cAMP
T1 construct: made in house; host or cells: E. coli BL21 (DE3) Codon Plus RIL
Protocol: (§1) . Figure 3 Competitive nucleotide binding assay using fluorescence polarization. […] 2.5 nM R subunit was added and fluorescence polarization was determined at Ex485 nm/Em535 nm. […] Each data point represents the mean +/- S.E.M. from at least triplicate measurements.
(§2) For expression of PKA regulatory subunits, one liter of Luria Broth medium containing 100 μg/ml of ampicillin was inoculated with E. coli BL21 (DE3) Codon Plus RIL cells (Stratagene) transformed with human RIα, RIβ, RIIα (in pRSETB) or rat RIIβ (in pETIIc) and grown at 37°C to an OD600 nm of 0.8. Recombinant protein expression was induced by addition of […] isopropyl-β-D-thiogalactopyranoside (IPTG) and the culture was incubated at 25°C for additional 17–18 h. The pellets were stored at -20°C.
(§3) The fluorescence polarization displacement assay was performed as described before. […] Fluorescence polarization was measured after 5 minutes of incubation at room temperature.

RIIα subunit = assay: Fluorescence polarization displacement of 8-Fluo-cAMP from RIIα subunit; assay type: binding, human; details: 2.5 nM RIIα, 1 nM 8-Fluo-cAMP
Protocol: as §1, §2, §3

RIIβ subunit = assay: Fluorescence polarization displacement of 8-Fluo-cAMP from RIIβ subunit; assay type: binding, rat; details: 2.5 nM RIIβ, 1 nM 8-Fluo-cAMP
Protocol: as §1, §2, §3

PKA-Iα holoenzyme = biological target: T2, PKA-Iα holoenzyme (Homo sapiens, UniProt P10644); assay: PKA holoenzyme activation, coupled spectrophotometric kinase assay with Kemptide (RIα + Cα); assay type: biochemical, human RIα, murine Cα; details: 20 nM PKA-Cα, 260 μM Kemptide; cAMP value printed with refs 27, 28 and Fig. 4a; read-out: apparent activation constant (EC50), RIα holoenzyme
T2 construct: made in house; host or cells: E. coli BL21 (DE3) / BL21 (DE3) Codon Plus RIL
Protocol: (§4) Kinase activity was assayed spectrophotometrically, using the synthetic heptapeptide Kemptide as a substrate. […] Each data point represents the mean ± S.D. of two measurements.

PKA-IIα holoenzyme = biological target: T3, PKA-IIα holoenzyme (Homo sapiens, UniProt P13861); assay: PKA holoenzyme activation, coupled spectrophotometric kinase assay with Kemptide (RIIα + Cα); assay type: biochemical, human RIIα, murine Cα; details: relative to cAMP
T3 construct: made in house; host or cells: E. coli BL21 (DE3) / BL21 (DE3) Codon Plus RIL
Protocol: as §4

PKA-IIβ holoenzyme = biological target: T4, PKA-IIβ holoenzyme (Rattus norvegicus, UniProt P12369); assay: PKA holoenzyme activation, coupled spectrophotometric kinase assay with Kemptide (RIIβ + Cα); assay type: biochemical, rat RIIβ, murine Cα; details: relative to cAMP
T4 construct: made in house; host or cells: E. coli BL21 (DE3) / BL21 (DE3) Codon Plus RIL
Protocol: as §4

PDE4D5 = PDE4D5 (Homo sapiens, UniProt Q08499); assay: Stability towards phosphodiesterase, coupled spectrophotometric activity assay; details: 15 minutes of assay duration
Excerpt: Absolutely stable analogs would arise from conjugating the Pharos fluorophore to phosphorothioate- modified structures such as Rp- or Sp-cAMPS (Rp- or Sp-diastereomer of adenosine 3'-5'-monophosphorothiorate).

[2] = biological target: T5, GFP-hRIα expressed in COS-7 cells (Homo sapiens, UniProt P10644); assay: Co-localization with GFP-tagged RIα by confocal microscopy; assay type: cell-based; details: 500 μM, 30 minutes
T5 construct: expressed in transfected cells; host or cells: COS-7
Protocol: (§5) The scale bar indicates 10 μm.
(§6) Cloning of the R subunits into the expression vector hpGFP^2-N2 (PerkinElmer) was performed as described previously. […] Cellular imaging was performed on a confocal microscope (Leica) with a Plan apo 100× oil immersion objective (Leica).

[3] = biological target: T6, GFP-hRIIα expressed in COS-7 cells (Homo sapiens, UniProt P13861); assay: Co-localization with GFP-tagged RIIα by confocal microscopy; assay type: cell-based; details: 500 μM, 30 minutes
T6 construct: expressed in transfected cells; host or cells: COS-7
Protocol: as §5, §6

[4] = Absorption and fluorescence spectra, relative quantum yield; assay type: physicochemical; details: pH 7.0
Excerpt: First we determined the photo-chemical properties of the free Pharos dye. The Stokes shift at pH 6.0, pH 7.0 and pH 7.4 was 42 nm resulting from an absorption maximum at 575 nm and an emission maximum at 617 nm (Fig. 1; […]
Figure 1 Fluorescence absorption and emission spectra of the Pharos dye. The absorption maxima of the Pharos dye dissolved in buffer with the indicated pH values is at 575 nm, whereas the emission maxima are at 617 nm.
To calculate the relative quantum yield ϕ of the Pharos dye the absorption (500 nm to 640 nm) and fluorescence (λex = 553 nm, λem ranging from 558 nm to 800 nm) spectra of several Pharos dye concentrations (640 nM to 64.2 μM) were recorded using quinine sulfate as a standard. The determination of the relative quantum yield is generally accomplished by plotting the integrated fluorescence intensity versus the absorbance at the excitation wavelength (see Additional file 1, panel a). By comparing the slope of the linear regression (see Additional file 1, panel b) with that of a standard substance (quinine sulfate), the relative quantum yield of the Pharos dye was determined to be 30%.
The Pharos dye was diluted in 20 mM 2-(4-morpholino)-ethane sulfonic acid (MES) buffer adjusted to pH 6.0, pH 7.0 and pH 7.4, and all samples were degassed by bubbling nitrogen through the solution before measuring the absorption or fluorescence spectra. […]

[5] = biological target: T7, PKA-IIα sensor (RIIα-RLuc / GFP2-Cα) in COS-7 cells (Homo sapiens, UniProt P13861); assay: BRET assay of PKA holoenzyme dissociation in living cells; details: 30 minutes
Excerpt: In this assay, a decrease in BRET signal indicates intracellular dissociation of the PKA holoenzyme [42].
BRET signals were obtained after addition of the luciferase substrate DeepBlueC™ and detection of luciferase and fluorescence light emission using a multi-label reader. Shown is a representative experiment, repeated three times; data are mean ± S.E.M., performed with n = 6 replicates. […] Briefly, cells were co-transfected with a constant amount of BRET donor (hRIIα-Rluc) and an increasing amount of acceptor DNA (GFP^2-hCα) as indicated. […] The BRET values of two independent experiments, each performed with n = 6 replicates, were background subtracted, normalized and plotted as mean ± S.E.M.
COS-7 cells were used for BRET experiments. […] For the BRET read-out, the luciferase substrate DeepBlueC™ (PerkinElmer) was added at a final concentration of 5 μM in a total volume of 50 μl D-PBS. […] Control measurements with cells expressing RLuc and GFP proteins without a fusion partner yield the background BRET signal. A BRET titration (bystander BRET test) was performed by co-transfection of COS-7 cells with a constant donor-expression plasmid (0.5 μg) with an increasing amount of acceptor-expression plasmid (0–2 μg). The cells were treated as described above.

[6] = Retention-based lipophilicity by reversed phase HPLC (logKw)
[7] = biological target: T7, PKA-IIα sensor (RIIα-RLuc / GFP2-Cα) in COS-7 cells; parameters: expressed in transfected cells; host or cells: COS-7; method as in PMID 16524697; details: living cells; read-out: EC50, holoenzyme dissociation by BRET; cited from earlier work

T7 sequence (P13861 whole entry): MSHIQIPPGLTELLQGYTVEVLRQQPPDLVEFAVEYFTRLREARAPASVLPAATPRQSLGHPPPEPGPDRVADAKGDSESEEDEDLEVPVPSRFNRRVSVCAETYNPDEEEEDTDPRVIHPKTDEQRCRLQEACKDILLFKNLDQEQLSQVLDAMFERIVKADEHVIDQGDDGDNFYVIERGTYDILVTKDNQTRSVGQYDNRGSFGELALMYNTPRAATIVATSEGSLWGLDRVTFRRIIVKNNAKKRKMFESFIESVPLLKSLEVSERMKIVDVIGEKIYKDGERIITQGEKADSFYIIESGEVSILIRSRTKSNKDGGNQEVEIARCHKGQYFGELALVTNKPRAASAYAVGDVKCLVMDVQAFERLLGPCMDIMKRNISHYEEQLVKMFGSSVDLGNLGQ
T3 sequence (P13861 whole entry): as above
T6 sequence (P13861 whole entry): as above
T4 sequence (P12369 whole entry): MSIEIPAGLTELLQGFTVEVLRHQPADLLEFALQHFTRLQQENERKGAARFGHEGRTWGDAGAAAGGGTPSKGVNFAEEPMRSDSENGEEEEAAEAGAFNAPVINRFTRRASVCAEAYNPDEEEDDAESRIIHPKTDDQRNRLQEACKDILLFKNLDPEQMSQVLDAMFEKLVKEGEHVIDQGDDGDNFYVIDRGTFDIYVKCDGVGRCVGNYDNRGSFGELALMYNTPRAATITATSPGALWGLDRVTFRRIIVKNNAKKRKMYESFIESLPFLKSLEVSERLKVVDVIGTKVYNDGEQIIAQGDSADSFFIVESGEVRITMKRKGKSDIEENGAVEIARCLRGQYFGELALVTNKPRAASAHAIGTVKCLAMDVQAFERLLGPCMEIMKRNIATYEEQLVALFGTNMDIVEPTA
PDE4D5, sequence (Q08499 1-745 isoform Q08499-6): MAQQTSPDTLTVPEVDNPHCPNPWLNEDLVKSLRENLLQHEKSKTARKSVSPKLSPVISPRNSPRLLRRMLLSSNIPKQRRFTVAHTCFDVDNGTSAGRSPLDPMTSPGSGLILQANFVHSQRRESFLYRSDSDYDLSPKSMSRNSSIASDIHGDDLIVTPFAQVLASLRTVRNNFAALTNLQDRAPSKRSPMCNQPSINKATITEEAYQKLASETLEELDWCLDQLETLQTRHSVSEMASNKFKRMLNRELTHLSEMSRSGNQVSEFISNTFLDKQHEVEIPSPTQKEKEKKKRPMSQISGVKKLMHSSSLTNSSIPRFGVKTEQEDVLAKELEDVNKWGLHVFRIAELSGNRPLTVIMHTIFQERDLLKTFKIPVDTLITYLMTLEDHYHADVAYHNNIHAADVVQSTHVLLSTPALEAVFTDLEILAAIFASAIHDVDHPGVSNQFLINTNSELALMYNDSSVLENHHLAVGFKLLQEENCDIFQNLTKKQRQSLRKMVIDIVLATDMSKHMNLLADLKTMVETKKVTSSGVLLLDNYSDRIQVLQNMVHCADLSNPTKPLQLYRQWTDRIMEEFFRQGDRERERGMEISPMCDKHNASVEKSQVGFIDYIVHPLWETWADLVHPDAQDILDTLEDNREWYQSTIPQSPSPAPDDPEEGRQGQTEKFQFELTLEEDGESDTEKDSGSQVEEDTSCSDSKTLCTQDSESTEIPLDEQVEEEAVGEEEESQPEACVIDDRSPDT
T1 sequence (P10644 whole entry): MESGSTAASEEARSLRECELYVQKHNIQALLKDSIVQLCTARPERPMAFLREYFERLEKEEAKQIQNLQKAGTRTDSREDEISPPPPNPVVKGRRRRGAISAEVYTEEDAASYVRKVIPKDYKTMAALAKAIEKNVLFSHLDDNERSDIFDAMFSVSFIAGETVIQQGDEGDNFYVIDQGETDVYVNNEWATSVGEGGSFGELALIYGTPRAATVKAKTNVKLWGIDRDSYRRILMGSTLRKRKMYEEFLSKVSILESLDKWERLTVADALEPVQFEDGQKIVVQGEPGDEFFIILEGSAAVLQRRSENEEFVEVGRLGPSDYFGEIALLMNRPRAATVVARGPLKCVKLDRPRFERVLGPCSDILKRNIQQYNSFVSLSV
T2 sequence (P10644 whole entry): as above
T5 sequence (P10644 whole entry): as above

O[C@@H]1[C@@H]2OP(O)(=S)OC[C@H]2O[C@H]1n1cnc2cc(Cl)c(Cl)cc21 (single isomer, unassigned) [Sp-5,6-DCl-cBIMPS, 5,6-dichlorobenzimidazole riboside-3',5'-cyclic monophosphorothioate, Sp-isomer, reference compound]
state of the fluorescent FRET probe after treatment ([1]; 500 μM, after 40 minutes of treatment): almost completely saturated

8-[Pharos-575]adenosine -3',5'-cyclic monophosphate [8-[ϕ-575]-cAMP]
binding to the R subunit compared with cAMP (displacement of 8-Fluo-cAMP) (RIα subunit): bound equally well
times cAMP is more efficient in displacing 8-Fluo-cAMP compared to 8-[ϕ-575]-cAMP (RIIα subunit): about 10 times
times cAMP is more efficient in displacing 8-Fluo-cAMP compared to 8-[ϕ-575]-cAMP (RIIβ subunit): ~5 times
EC50 (PKA-Iα holoenzyme): 0.15 µM
apparent activation constant (EC50) compared to cAMP, RIIα holoenzyme (PKA-IIα holoenzyme): about two-fold increased
apparent activation constant (EC50) compared to cAMP, RIIβ holoenzyme (PKA-IIβ holoenzyme): about two-fold increased
concentration available to the intracellular fluorescent indicator ([1]; 500 μM added for one hour, estimated from cAMP dose-FRET response curve): about 7 μM
degradation by PDE4D5 (PDE4D5): No degradation
co-localization with GFP-tagged RIα [2]: co-localization
co-localization with GFP-tagged RIIα [3]: co-localization
emission maximum [4]: 605 nm
excitation maximum [4]: 577 nm
inhibition of specific RIIα-Cα interaction (BRET titration) ([5]; 600 μM, COS-7 cells): about 50%
EC50 ([5]; read-out: concentration for half-maximal holoenzyme dissociation, added to intact COS-7 cells): ~600 µM
increased lipophilicity compared to cAMP ([6]; from logKw): more than 70 times
logKw ([6]; reversed phase HPLC, YMC RP-18): 2.95

Nc1ncnc2c1nc(Br)n2[C@@H]1O[C@@H]2COP(=O)(O)O[C@H]2[C@H]1O [8-Br-cAMP, 8-Bromoadenosine-3',5'-cyclic monophosphate]
EC50 [7]: 1500 µM
